From ChEMBL document CHEMBL1201862, “PubChem BioAssay data set” (2004) come the findings set out here.

Molecules are shown by their SMILES.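 Step 1: Grow cells in 96-well plates. Step 2: Expose to compound for 48 hours at 5 concentrations. Step 3: Interpolate endpoints linearly; if unreached, use highest concentration. At the GI50, growth is halved.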 Activity calls are given as the source filed them. Cut-off read from the data, not from the text of the source: active = GI50 up to about 1.1 µM and inactive = higher.

Among the test systems are A498; CAKI-1; CCRF-CEM; COLO 205; IGROV-1; KM12; M14; M19-MEL; NCI-H226; RPMI-8226; SF-539; SK-MEL-28; SR; TK-10; U-251; HOP-92; HT-29; LOX IMVI; OVCAR-3.
Experiment in all cases: NCI anticancer screen, dose series, 48 h

Turning to `O=C1C2C3CC4C5C3C1C5C1(SCCS1)C42` (stereo not given), the GI50 in the assay on A498, in the assay on CAKI-1, in the assay with CCRF-CEM, with COLO 205, in the assay on IGROV-1 and with KM12 was > 100 µM (inactive) in each case. Further, the GI50 in the assay on M14, in the assay on M19-MEL, with NCI-H226, with RPMI-8226, with SF-539 and in the assay with SK-MEL-28 was > 100 µM (inactive) in each case. Moreover, the GI50 with SR, in the assay with TK-10 and in the assay on U-251 was > 100 µM (inactive) each time.

For the compound `CCCCNC(=O)NNC(=O)c1cc(/C=C/c2cccc([N+](=O)[O-])c2)ncn1`, the GI50 in the assay with A498, in the assay on CAKI-1, in the assay on CCRF-CEM, in the assay on COLO 205, in the assay with HOP-92 and in the assay on HT-29 was > 100 µM (inactive) throughout. The GI50 in the assay with IGROV-1 was > 100 µM (inactive); with KM12, > 100 µM (inactive); in the assay on LOX IMVI, 34.2 µM (inactive); in the assay with M14 it was > 100 µM (inactive); with M19-MEL, > 100 µM (inactive); in the assay with NCI-H226 it was > 100 µM (inactive). For the same compound, the GI50 in the assay with OVCAR-3 was > 100 µM (inactive); with RPMI-8226 it was 25.4 µM (inactive); in the assay with SK-MEL-28, > 100 µM (inactive); in the assay with SR it was 34.8 µM (inactive); in the assay on TK-10 it was > 100 µM (inactive); in the assay on U-251 it was 21.1 µM (inactive).

On to `O=C(Nc1ccc(C(F)(F)F)cc1[N+](=O)[O-])C(=O)C(C(=O)c1ccc2ccccc2c1)C1OC(=O)c2ccccc21` (stereo not given), for which the GI50 in the assay on A498 is 4.09 µM (inactive); with CAKI-1, 8.26 µM (inactive); with CCRF-CEM, 3.7 µM (inactive); in the assay on COLO 205, 8.75 µM (inactive); in the assay on HOP-92 it was 0.34 µM (active); with HT-29, 9.08 µM (inactive). The GI50 with IGROV-1 is 19.5 µM (inactive); with KM12, 11.9 µM (inactive); in the assay on LOX IMVI it was 6.38 µM (inactive); in the assay with M14 it was 13.6 µM (inactive); in the assay on M19-MEL, 8.89 µM (inactive); in the assay with NCI-H226, 0.681 µM (active). The GI50 was 12.8 µM (inactive) in the assay with OVCAR-3; 4.11 µM (inactive) in the assay with RPMI-8226; 1.63 µM (inactive) with SF-539; 3.63 µM (inactive) in the assay with SK-MEL-28; 2.81 µM (inactive) in the assay with SR; 18.5 µM (inactive) in the assay with TK-10. The GI50 in the assay with U-251 was 4.41 µM (inactive).

For `O=c1cc(-c2ccccc2)c2cc3c(=O)ccoc3cc2o1`, the GI50 is 15.7 µM (inactive) with A498; 48.1 µM (inactive) in the assay on CCRF-CEM; > 100 µM (inactive) in the assay on COLO 205; > 100 µM (inactive) in the assay on HT-29; > 100 µM (inactive) with LOX IMVI; > 100 µM (inactive) in the assay on M14. Moreover, the GI50 with M19-MEL was > 100 µM (inactive); in the assay on NCI-H226, 79.1 µM (inactive); in the assay with OVCAR-3, > 100 µM (inactive); in the assay with RPMI-8226, > 100 µM (inactive); with SF-539, > 100 µM (inactive); in the assay with SK-MEL-28, > 100 µM (inactive). The figures for the GI50 in the assay on SR, in the assay on TK-10 and with U-251 were > 100 µM (inactive), 44.4 µM (inactive) and > 100 µM (inactive), respectively.

With `N#CCCN(c1ccc(C=O)cc1)S(=O)(=O)c1ccccc1`, the GI50 in the assay with A498, in the assay with CAKI-1, with HT-29, with IGROV-1, in the assay with KM12 and in the assay on LOX IMVI was > 100 µM (inactive) throughout. For the same compound, the GI50 in the assay with M14, in the assay on M19-MEL, in the assay on NCI-H226, with OVCAR-3, in the assay on RPMI-8226 and in the assay with SF-539 was > 100 µM (inactive) throughout. Also, the GI50 with SK-MEL-28, in the assay on SR and in the assay on U-251 was > 100 µM (inactive) each time.

Consider `COc1cc(-c2ccc(NC(=O)SCCC(=O)O)cc2OC)ccc1NC(=O)SCCC(=O)O`, for which the GI50 with A498 was > 100 µM (inactive); in the assay on CAKI-1, > 100 µM (inactive); with CCRF-CEM, 98.2 µM (inactive); with COLO 205, > 100 µM (inactive); in the assay on HT-29 it was > 100 µM (inactive); in the assay with KM12, > 100 µM (inactive). Also, the GI50 with LOX IMVI, in the assay with M14, in the assay with M19-MEL, in the assay on NCI-H226, in the assay with OVCAR-3 and in the assay on RPMI-8226 was > 100 µM (inactive) each time. The GI50 in the assay with SF-539, with SK-MEL-28, in the assay with SR, with TK-10 and in the assay with U-251 was > 100 µM (inactive) in each case.

As for `COc1ccc(/C(=N\NC(=O)C(=O)NN)C(c2ccc(OC)cc2)C2(O)C(=O)Nc3ccccc32)cc1` (stereo not given), the GI50 in the assay with A498 is 48.8 µM (inactive); in the assay with CAKI-1 it was > 100 µM (inactive); in the assay with CCRF-CEM, > 10 µM (inactive); with COLO 205, > 100 µM (inactive); with HOP-92, 97.1 µM (inactive); in the assay with HT-29, 14.5 µM (inactive). For the same compound, the GI50 in the assay on IGROV-1, in the assay on KM12, in the assay on M14, in the assay on M19-MEL, in the assay with NCI-H226 and in the assay on OVCAR-3 was > 100 µM (inactive) in each case. Moreover, the GI50 with RPMI-8226 is 69.7 µM (inactive); in the assay with SF-539, 80.7 µM (inactive); with SK-MEL-28, > 100 µM (inactive); in the assay with SR, 46 µM (inactive); in the assay on TK-10 it was 69 µM (inactive); in the assay on U-251, > 100 µM (inactive).

For `COC(=O)/C(=N\NC(N)=O)C(C(=O)C(=O)Nc1ccccc1C(=O)OC)c1nc2ccc(C(=O)c3ccccc3)cc2nc1O` (stereo not given), the GI50 with A498, with CAKI-1, in the assay with CCRF-CEM, in the assay on HOP-92, with HT-29 and with IGROV-1 was > 100 µM (inactive) in each case. Also, the GI50 with KM12, with LOX IMVI, with M14, in the assay on M19-MEL, in the assay on NCI-H226 and in the assay with OVCAR-3 was > 100 µM (inactive) each time. In addition, the GI50 in the assay with RPMI-8226, in the assay on SF-539, in the assay on SK-MEL-28, with SR, in the assay on TK-10 and in the assay on U-251 was > 100 µM (inactive) each time.
